In ChEMBL document CHEMBL4507268 (2021) one finds residual activity, IC50 and inhibition data, which are given here for two compounds.

Test [1] deals with Casein kinase I isoform epsilon (Homo sapiens) (UniProt P49674). The settings on record: Compound concentration 1000.0 nM.
In test [2] the target is T1, TGF-beta receptor type-1 (Homo sapiens) (UniProt P36897).
T1 sequence (whole entry): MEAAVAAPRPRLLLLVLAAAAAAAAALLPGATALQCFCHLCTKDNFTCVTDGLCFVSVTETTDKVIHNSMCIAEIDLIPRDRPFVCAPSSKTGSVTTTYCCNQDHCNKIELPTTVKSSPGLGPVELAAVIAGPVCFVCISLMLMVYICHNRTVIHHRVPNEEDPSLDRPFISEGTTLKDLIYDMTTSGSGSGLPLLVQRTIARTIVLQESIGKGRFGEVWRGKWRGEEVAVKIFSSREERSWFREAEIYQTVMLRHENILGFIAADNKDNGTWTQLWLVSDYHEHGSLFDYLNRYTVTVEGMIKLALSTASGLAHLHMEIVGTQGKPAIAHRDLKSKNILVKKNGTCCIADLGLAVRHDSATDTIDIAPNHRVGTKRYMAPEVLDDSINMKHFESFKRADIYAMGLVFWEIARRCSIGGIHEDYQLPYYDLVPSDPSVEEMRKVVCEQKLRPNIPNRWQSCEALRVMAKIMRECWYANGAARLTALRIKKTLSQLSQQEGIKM
The settings on record: Compound concentration 1000.0 nM.

For test [3], the target named is Solute carrier family 2, facilitated glucose transporter member 1 (Homo sapiens, UniProt P11166). Nature of the test: Cellular mechanistic assay: Inhibition of glucose uptake by Hela-MaTu cells.
Sequence of Solute carrier family 2, facilitated glucose transporter member 1 (P11166 whole entry): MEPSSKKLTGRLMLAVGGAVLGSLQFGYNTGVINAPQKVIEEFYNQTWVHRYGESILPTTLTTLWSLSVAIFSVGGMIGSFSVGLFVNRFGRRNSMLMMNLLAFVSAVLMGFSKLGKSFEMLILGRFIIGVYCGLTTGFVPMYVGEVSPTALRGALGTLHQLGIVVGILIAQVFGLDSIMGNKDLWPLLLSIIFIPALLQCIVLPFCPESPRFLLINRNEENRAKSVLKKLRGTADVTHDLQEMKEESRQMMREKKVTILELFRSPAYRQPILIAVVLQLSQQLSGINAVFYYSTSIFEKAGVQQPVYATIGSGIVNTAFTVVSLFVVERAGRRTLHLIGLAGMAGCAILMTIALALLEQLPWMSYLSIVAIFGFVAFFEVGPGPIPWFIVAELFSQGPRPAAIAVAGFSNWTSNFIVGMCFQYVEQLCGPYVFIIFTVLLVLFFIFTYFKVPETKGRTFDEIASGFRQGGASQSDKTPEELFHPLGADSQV
Test [4] concerns the target Ribosomal protein S6 kinase alpha-3 (Homo sapiens) (UniProt P51812). As to conditions: Compound concentration 1000.0 nM.
Test [5] concerns the target Phosphorylase b kinase gamma catalytic chain, skeletal muscle/heart isoform (Homo sapiens) (UniProt Q16816). As to conditions: Compound concentration 1000.0 nM.
Test [6] concerns the target Homeodomain-interacting protein kinase 1 (Homo sapiens) (UniProt Q86Z02). The settings on record: Compound concentration 1000.0 nM.
In test [7] the target is Serine/threonine-protein kinase SBK1 (Homo sapiens) (UniProt Q52WX2). As to conditions: Compound concentration 1000.0 nM.
Sequence of Serine/threonine-protein kinase SBK1 (Homo sapiens) (Q52WX2 whole entry): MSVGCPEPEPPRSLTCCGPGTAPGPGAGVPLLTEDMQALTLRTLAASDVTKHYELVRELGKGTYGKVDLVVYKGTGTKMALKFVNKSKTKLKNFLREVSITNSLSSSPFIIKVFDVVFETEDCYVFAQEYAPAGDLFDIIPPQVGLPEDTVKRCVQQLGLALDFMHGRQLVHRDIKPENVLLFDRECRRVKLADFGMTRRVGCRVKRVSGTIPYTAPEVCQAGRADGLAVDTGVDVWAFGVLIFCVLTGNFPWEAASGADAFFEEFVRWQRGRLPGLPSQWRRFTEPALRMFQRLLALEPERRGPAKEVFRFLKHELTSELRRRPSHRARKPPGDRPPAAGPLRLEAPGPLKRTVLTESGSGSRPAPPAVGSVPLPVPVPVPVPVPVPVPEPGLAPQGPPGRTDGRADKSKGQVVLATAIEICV
Test [8] has as its target Phosphatidylinositol 4-phosphate 5-kinase type-1 alpha (Homo sapiens) (UniProt Q99755). The settings on record: Compound concentration 1000.0 nM.
Test [9] concerns the target T2, Dual specificity mitogen-activated protein kinase kinase 3 (Homo sapiens) (UniProt P46734).
T2 sequence (whole entry): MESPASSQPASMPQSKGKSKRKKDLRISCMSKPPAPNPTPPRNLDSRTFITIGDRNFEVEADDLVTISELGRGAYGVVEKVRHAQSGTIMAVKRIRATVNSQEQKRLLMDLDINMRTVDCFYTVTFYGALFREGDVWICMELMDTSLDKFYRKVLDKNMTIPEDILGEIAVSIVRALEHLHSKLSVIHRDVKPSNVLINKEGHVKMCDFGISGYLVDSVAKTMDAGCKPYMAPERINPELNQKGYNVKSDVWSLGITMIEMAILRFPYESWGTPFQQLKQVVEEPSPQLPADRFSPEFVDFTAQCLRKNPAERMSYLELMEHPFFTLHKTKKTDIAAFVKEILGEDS
The settings on record: Compound concentration 1000.0 nM.

Test [10] addresses Muscarinic acetylcholine receptor M1 (Homo sapiens) (UniProt P11229). As to conditions: Compound concentration 10.0 uM.
Test [11] concerns the target Ephrin type-A receptor 7 (Homo sapiens) (UniProt Q15375). As to conditions: Compound concentration 1000.0 nM.
Test [12] addresses 5-hydroxytryptamine receptor 2B (Homo sapiens) (UniProt P41595). As to conditions: Compound concentration 10.0 uM.
In test [13] the test system is ALK tyrosine kinase receptor (Homo sapiens), Q9UM73 [C1156Y]. The settings on record: Compound concentration 1000.0 nM.
Sequence of ALK tyrosine kinase receptor (Homo sapiens), Q9UM73 [C1156Y] (Q9UM73 whole entry C1156Y, looked up): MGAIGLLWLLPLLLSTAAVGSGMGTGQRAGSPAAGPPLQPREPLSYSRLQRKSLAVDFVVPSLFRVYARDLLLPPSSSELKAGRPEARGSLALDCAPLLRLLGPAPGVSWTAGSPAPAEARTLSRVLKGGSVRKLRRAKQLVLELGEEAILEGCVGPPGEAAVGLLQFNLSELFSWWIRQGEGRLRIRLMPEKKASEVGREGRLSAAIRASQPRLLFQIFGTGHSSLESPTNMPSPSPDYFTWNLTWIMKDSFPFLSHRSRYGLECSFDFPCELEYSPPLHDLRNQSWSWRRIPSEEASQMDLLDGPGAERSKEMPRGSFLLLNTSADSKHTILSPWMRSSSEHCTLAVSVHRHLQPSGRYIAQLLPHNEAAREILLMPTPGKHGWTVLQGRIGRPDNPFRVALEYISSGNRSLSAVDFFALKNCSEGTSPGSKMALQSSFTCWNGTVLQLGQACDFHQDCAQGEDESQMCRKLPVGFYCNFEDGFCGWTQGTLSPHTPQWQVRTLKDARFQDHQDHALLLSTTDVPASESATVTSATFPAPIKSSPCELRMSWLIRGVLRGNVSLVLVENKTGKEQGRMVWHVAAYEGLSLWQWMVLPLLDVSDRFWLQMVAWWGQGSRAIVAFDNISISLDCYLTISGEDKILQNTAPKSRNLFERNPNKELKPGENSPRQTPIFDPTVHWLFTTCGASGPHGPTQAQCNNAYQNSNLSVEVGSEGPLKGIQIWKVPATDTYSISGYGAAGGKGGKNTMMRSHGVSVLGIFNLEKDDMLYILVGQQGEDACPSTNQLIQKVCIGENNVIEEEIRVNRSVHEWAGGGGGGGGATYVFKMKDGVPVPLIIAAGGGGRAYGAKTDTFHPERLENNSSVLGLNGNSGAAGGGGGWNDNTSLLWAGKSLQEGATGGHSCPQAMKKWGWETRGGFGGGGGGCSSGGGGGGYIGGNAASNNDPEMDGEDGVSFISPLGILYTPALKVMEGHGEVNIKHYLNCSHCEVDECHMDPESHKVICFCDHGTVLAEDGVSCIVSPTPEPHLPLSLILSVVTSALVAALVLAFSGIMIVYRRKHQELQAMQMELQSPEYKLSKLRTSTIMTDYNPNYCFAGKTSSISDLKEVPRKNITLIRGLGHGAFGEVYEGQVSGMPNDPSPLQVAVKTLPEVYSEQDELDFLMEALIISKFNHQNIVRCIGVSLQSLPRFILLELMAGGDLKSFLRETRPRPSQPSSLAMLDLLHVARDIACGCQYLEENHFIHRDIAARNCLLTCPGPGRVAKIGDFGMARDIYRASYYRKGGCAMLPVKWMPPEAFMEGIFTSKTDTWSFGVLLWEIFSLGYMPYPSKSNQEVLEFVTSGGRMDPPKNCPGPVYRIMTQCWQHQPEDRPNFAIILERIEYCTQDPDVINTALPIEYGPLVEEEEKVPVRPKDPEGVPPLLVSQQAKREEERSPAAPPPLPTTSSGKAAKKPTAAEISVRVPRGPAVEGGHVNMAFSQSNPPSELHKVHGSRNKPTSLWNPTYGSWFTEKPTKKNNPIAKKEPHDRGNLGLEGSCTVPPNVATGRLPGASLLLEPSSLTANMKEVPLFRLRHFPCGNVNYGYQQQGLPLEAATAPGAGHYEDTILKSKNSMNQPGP
The target in test [14] is T3, MAP/microtubule affinity-regulating kinase 4 (Homo sapiens) (UniProt Q96L34).
T3 sequence (whole entry): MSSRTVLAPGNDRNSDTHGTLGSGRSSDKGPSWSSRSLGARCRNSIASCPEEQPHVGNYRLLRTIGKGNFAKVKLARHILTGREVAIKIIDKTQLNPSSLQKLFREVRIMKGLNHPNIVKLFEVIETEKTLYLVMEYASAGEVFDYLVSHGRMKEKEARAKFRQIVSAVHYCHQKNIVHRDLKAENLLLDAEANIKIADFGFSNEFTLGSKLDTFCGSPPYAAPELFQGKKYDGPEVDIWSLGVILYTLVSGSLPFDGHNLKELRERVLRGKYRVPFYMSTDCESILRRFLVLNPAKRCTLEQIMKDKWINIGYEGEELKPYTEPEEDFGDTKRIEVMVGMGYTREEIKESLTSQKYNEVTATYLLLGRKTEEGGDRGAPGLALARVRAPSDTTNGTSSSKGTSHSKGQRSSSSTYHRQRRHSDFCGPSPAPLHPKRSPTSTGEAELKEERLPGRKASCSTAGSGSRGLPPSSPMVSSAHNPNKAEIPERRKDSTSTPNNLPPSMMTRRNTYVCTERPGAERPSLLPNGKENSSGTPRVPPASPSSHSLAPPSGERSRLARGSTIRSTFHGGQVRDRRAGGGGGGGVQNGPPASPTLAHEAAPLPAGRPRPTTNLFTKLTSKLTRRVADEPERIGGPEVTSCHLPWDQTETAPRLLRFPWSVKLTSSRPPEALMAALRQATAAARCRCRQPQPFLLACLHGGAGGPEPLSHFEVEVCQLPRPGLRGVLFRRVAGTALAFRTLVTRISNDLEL
As to conditions: Compound concentration 1000.0 nM.

Calls of active or inactive are those of the source. The calls are words filed in the database; no cut-off is given here.

Sequence of Phosphorylase b kinase gamma catalytic chain, skeletal muscle/heart isoform (Homo sapiens) (Q16816 whole entry, looked up, canonical isoform): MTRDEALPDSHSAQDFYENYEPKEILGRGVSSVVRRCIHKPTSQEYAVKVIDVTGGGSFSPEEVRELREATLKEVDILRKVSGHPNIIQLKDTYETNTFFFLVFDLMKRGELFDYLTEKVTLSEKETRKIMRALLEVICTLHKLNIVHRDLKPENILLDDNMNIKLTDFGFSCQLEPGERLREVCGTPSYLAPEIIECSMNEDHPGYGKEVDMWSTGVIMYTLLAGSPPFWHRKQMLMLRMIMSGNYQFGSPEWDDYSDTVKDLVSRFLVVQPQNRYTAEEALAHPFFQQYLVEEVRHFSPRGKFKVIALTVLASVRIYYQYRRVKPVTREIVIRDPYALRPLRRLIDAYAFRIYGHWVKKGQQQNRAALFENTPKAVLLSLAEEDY
Sequence of Ribosomal protein S6 kinase alpha-3 (Homo sapiens) (P51812 whole entry, canonical isoform): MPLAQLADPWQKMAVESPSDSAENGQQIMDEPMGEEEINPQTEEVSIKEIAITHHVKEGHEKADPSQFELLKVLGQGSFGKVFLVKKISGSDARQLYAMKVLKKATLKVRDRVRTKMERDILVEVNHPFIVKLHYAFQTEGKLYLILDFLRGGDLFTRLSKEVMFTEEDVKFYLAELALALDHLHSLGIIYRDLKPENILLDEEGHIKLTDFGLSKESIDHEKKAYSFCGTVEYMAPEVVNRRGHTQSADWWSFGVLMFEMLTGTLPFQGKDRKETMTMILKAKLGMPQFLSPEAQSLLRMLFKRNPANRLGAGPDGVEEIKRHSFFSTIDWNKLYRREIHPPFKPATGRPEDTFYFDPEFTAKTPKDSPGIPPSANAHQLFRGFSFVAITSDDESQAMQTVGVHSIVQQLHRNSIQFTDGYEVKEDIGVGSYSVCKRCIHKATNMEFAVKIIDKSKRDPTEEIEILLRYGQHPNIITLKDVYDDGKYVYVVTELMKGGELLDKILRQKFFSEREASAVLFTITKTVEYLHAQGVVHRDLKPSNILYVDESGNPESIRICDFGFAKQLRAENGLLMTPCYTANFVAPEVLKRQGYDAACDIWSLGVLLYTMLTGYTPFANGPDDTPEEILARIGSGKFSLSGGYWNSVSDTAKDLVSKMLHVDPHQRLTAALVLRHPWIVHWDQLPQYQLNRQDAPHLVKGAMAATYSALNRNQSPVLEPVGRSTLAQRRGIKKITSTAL
Sequence of Homeodomain-interacting protein kinase 1 (Homo sapiens) (Q86Z02 whole entry, looked up): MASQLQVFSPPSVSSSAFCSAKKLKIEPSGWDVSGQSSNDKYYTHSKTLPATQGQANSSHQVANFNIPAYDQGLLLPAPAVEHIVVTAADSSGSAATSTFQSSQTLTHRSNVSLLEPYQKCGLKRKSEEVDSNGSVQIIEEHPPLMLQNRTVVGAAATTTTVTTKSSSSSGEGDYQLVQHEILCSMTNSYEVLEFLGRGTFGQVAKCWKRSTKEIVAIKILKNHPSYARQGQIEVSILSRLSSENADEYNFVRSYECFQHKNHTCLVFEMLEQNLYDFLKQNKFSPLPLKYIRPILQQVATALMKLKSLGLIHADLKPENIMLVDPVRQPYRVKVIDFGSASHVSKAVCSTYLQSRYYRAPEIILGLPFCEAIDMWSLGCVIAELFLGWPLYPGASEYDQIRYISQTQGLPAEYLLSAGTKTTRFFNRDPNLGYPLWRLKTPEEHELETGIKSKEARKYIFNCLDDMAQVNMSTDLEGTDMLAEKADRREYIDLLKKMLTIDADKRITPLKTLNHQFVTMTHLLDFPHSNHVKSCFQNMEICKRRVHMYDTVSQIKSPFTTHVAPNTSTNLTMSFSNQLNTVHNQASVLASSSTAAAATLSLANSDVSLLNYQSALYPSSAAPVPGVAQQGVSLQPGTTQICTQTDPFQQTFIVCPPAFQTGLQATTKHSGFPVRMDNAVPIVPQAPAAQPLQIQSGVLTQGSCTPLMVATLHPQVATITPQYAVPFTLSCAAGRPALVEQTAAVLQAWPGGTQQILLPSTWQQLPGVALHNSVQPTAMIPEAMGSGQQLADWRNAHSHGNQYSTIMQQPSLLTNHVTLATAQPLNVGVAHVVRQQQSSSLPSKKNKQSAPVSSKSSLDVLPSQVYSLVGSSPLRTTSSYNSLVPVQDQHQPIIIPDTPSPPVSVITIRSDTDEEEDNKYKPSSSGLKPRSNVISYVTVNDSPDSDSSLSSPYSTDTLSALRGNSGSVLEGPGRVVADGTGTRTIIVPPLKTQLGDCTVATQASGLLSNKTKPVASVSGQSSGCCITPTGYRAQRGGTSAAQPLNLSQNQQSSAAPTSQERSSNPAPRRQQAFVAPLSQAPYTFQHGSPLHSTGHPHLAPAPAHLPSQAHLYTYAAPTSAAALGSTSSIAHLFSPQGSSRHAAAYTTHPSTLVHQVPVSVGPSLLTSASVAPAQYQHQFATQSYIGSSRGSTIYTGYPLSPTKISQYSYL

For the compound `Cc1nc(C2CCN(C(=O)c3ccc(OC(F)(F)F)cc3N)CC2)c2ncc(N3CCN(C)CC3)cc2n1` [BAY-693], the residual activity was 100% in [1]; 80% in test [2]; 82% in test [4]; 100% in test [5]; 100% in [6]; 40% in test [7]. The residual activity in test [8] is 63%; in test [9] it was 98%; in test [11], 92%; in [13], 100%; in test [14], 100%. Also, the IC50 in [3] was 6.4 µM (not active). In addition, the values for the inhibition in test [10] and in test [12] were 2.76% and -1.28%, respectively.
As for `CN1CCN(c2cnc3c(C4CCN(C(=O)c5ccc(OC(F)(F)F)cc5N)CC4)ncnc3c2)CC1` [BAY-885], the residual activity in test [1] was 100%; in [2], 90%; in test [4] it was 80%; in [5] it was 100%; in test [6], 99%; in test [7], 100%. The residual activity was 64% in [8]; 94% in test [9]; 100% in test [11]; 100% in test [13]; 100% in [14]. The concentration for half-maximal inhibition (IC50) in test [3] is 0.035 µM (active). For the same compound, the inhibition in test [10] is 3.17%; in [12], 3.56%.
